Reference: ChEMBL document CHEMBL1201862, “PubChem BioAssay data set” (2004)
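Method: 48-hour compound exposure of cells in 96-well plates, five concentrations, linear interpolation of endpoints. GI50 is the concentration that inhibits growth by half.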 Active and inactive are the calls of the source. Rule as the data show it: active = GI50 up to about 1.1 µM and inactive = higher.

Key:
Test in all cases: DTP human tumour cell line panel, 48 h
[1] = test system: SN12C
[2] = test system: SW-620
[3] = test system: U-251
[4] = test system: A498
[5] = test system: OVCAR-8
[6] = test system: HT-29
[7] = test system: SK-MEL-5
[8] = test system: RPMI-8226
[9] = test system: TK-10
[10] = test system: OVCAR-5
[11] = test system: RXF 393
[12] = test system: M14
[13] = test system: SNB-75
[14] = test system: NCI-H226
[15] = test system: SNB-78
[16] = test system: LXFL 529
[17] = test system: KM-20L2
[18] = test system: DLD-1
[19] = test system: OVCAR-3
[20] = test system: HCT-116
[21] = test system: M19-MEL
[22] = test system: SF-539
[23] = test system: UACC-257
[24] = test system: SF-268
[25] = test system: KM12
[26] = test system: IGROV-1
[27] = test system: LOX IMVI
[28] = test system: DMS-273
[29] = test system: UO-31
[30] = test system: NCI-H23
[31] = test system: A549
[32] = test system: SK-MEL-28
[33] = test system: 786-0
[34] = test system: CCRF-CEM
[35] = test system: ACHN
[36] = test system: UACC-62
[37] = test system: HOP-18
[38] = test system: HOP-62
[39] = test system: COLO 205
[40] = test system: MOLT-4
[41] = test system: SF-295
[42] = test system: SK-MEL-2
[43] = test system: Malme-3M
[44] = test system: HOP-92
[45] = test system: HCC 2998
[46] = test system: SR
[47] = test system: SK-OV-3
[48] = test system: EKVX
[49] = test system: K562
[50] = test system: NCI-H522
[51] = test system: HL-60
[52] = test system: SNB-19
[53] = test system: DMS-114
[54] = test system: OVCAR-4
[55] = test system: HCT-15
[56] = test system: CAKI-1
[57] = test system: NCI-H460

N/C(=C\c1ccc(OCc2ccccc2)c(OCc2ccccc2)c1[N+](=O)[O-])C(=O)O
GI50 [1]: > 100 µM (inactive) | GI50 [2]: > 100 µM (inactive) | GI50 [3]: > 100 µM (inactive) | GI50 [4]: > 100 µM (inactive) | GI50 [5]: > 100 µM (inactive) | GI50 [6]: > 100 µM (inactive) | GI50 [7]: > 100 µM (inactive) | GI50 [8]: > 100 µM (inactive) | GI50 [9]: > 100 µM (inactive) | GI50 [10]: > 100 µM (inactive) | GI50 [11]: > 100 µM (inactive) | GI50 [12]: > 100 µM (inactive) | GI50 [13]: > 100 µM (inactive) | GI50 [14]: > 100 µM (inactive) | GI50 [15]: > 100 µM (inactive) | GI50 [16]: > 100 µM (inactive) | GI50 [17]: > 100 µM (inactive) | GI50 [18]: > 100 µM (inactive) | GI50 [19]: > 100 µM (inactive) | GI50 [20]: > 100 µM (inactive) | GI50 [21]: > 100 µM (inactive) | GI50 [22]: > 100 µM (inactive) | GI50 [23]: > 100 µM (inactive) | GI50 [24]: > 100 µM (inactive) | GI50 [25]: > 100 µM (inactive) | GI50 [26]: > 100 µM (inactive) | GI50 [27]: > 100 µM (inactive) | GI50 [28]: > 100 µM (inactive) | GI50 [29]: > 100 µM (inactive) | GI50 [30]: > 100 µM (inactive) | GI50 [31]: > 100 µM (inactive) | GI50 [32]: > 100 µM (inactive) | GI50 [33]: > 100 µM (inactive) | GI50 [34]: > 100 µM (inactive) | GI50 [35]: > 100 µM (inactive) | GI50 [36]: > 100 µM (inactive) | GI50 [37]: > 100 µM (inactive) | GI50 [38]: > 100 µM (inactive) | GI50 [39]: > 100 µM (inactive) | GI50 [40]: > 100 µM (inactive) | GI50 [41]: > 100 µM (inactive) | GI50 [42]: > 100 µM (inactive) | GI50 [43]: > 100 µM (inactive) | GI50 [44]: > 100 µM (inactive) | GI50 [45]: > 100 µM (inactive) | GI50 [46]: > 100 µM (inactive) | GI50 [47]: > 100 µM (inactive) | GI50 [48]: > 100 µM (inactive) | GI50 [49]: > 100 µM (inactive) | GI50 [50]: > 100 µM (inactive) | GI50 [51]: > 100 µM (inactive) | GI50 [52]: > 100 µM (inactive)

CC(C)(C)C#COC(=O)c1ccccc1
GI50 [1]: > 100 µM (inactive) | GI50 [2]: > 100 µM (inactive) | GI50 [3]: > 100 µM (inactive) | GI50 [4]: > 100 µM (inactive) | GI50 [5]: > 100 µM (inactive) | GI50 [6]: > 100 µM (inactive) | GI50 [7]: > 100 µM (inactive) | GI50 [8]: > 100 µM (inactive) | GI50 [10]: > 100 µM (inactive) | GI50 [12]: > 100 µM (inactive) | GI50 [53]: > 100 µM (inactive) | GI50 [14]: > 100 µM (inactive) | GI50 [15]: > 100 µM (inactive) | GI50 [16]: > 100 µM (inactive) | GI50 [17]: > 100 µM (inactive) | GI50 [18]: > 100 µM (inactive) | GI50 [19]: > 100 µM (inactive) | GI50 [20]: > 100 µM (inactive) | GI50 [21]: > 100 µM (inactive) | GI50 [22]: > 100 µM (inactive) | GI50 [23]: > 100 µM (inactive) | GI50 [24]: > 100 µM (inactive) | GI50 [25]: > 100 µM (inactive) | GI50 [26]: > 100 µM (inactive) | GI50 [54]: > 100 µM (inactive) | GI50 [27]: > 100 µM (inactive) | GI50 [55]: > 100 µM | GI50 [29]: > 100 µM (inactive) | GI50 [56]: > 100 µM (inactive) | GI50 [30]: > 100 µM (inactive) | GI50 [31]: > 100 µM (inactive) | GI50 [33]: > 100 µM (inactive) | GI50 [34]: > 100 µM (inactive) | GI50 [57]: > 100 µM (inactive) | GI50 [35]: > 100 µM (inactive) | GI50 [36]: > 100 µM (inactive) | GI50 [38]: > 100 µM (inactive) | GI50 [39]: > 100 µM (inactive) | GI50 [40]: > 100 µM (inactive) | GI50 [41]: > 100 µM (inactive) | GI50 [42]: > 100 µM (inactive) | GI50 [43]: > 100 µM (inactive) | GI50 [45]: > 100 µM (inactive) | GI50 [46]: > 100 µM (inactive) | GI50 [47]: > 100 µM (inactive) | GI50 [48]: > 100 µM (inactive) | GI50 [49]: > 100 µM (inactive) | GI50 [50]: > 100 µM (inactive) | GI50 [51]: > 100 µM (inactive) | GI50 [52]: > 100 µM (inactive)
